± gives the standard deviation of the averaged measurements.
Tests used:
[1] = compound: CC[C@@H](C(=O)[C@@H](C)[C@@H](O)[C@H](C)[C@@H]1O[C@@H]([C@@H](CC)C(=O)O)CC[C@@H]1C)[C@H]1O[C@]2(C=C[C@@H](O)[C@]3(CC[C@@](C)([C@H]4CC[C@](O)(CC)[C@H](C)O4)O3)O2)[C@H](C)C[C@@H]1C [SALINOMYCIN]; test: surviving fraction relative to DMSO-only wells; higher = less growth inhibition; conditions: exposure time: 5 days
How it was run: (§1)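 Continuous five-day exposure to inhibitors at 0.5, 1, 5, 10, 50, 100, 500 and 1000 nM started 24 hours after log-phase tumour cell lines were seeded at 250–500 cells per well in 384-well plates. Luminescence was read after 10 minutes at room temperature. Viability is given as surviving fraction, meaning CellTiter-Glo luminescence normalised to the median of DMSO-only wells.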

[2] = compound: C=CCNC1=C2C[C@@H](C)C[C@H](OC)[C@H](O)[C@@H](C)/C=C(\C)[C@H](OC(N)=O)[C@@H](OC)/C=C\C=C(/C)C(=O)NC(=CC1=O)C2=O [17-AAG]; test: as above; conditions: exposure time: 5 days
How it was run: as §1

Row | Test System | surviving fraction ([1]; 0.5 nM) | surviving fraction ([1]; 1 nM) | surviving fraction ([1]; 5 nM) | surviving fraction ([1]; 10 nM) | surviving fraction ([1]; 50 nM) | surviving fraction ([1]; 100 nM) | surviving fraction ([1]; 500 nM) | surviving fraction ([1]; 1000 nM) | surviving fraction ([2]; 0.5 nM) | surviving fraction ([2]; 1 nM) | surviving fraction ([2]; 5 nM) | surviving fraction ([2]; 10 nM) | surviving fraction ([2]; 50 nM) | surviving fraction ([2]; 100 nM) | surviving fraction ([2]; 500 nM) | surviving fraction ([2]; 1000 nM)
1 | CAL72 BONE | 1.05 ± 0.037 | 1.02 ± 0.044 | 1.04 ± 0.018 | 1.06 ± 0.027 | 1.11 ± 0.021 | 1.1 ± 0.049 | 0.647 ± 0.087 | 0.564 ± 0.031 | 1.05 ± 0.064 | 1 ± 0.016 | 0.982 ± 0.016 | 1 ± 0.017 | 1.15 ± 0.032 | 0.953 ± 0.04 | 0.249 ± 0.015 | 0.234 ± 0.011
2 | CAL120 BREAST | 0.8885 ± 0.0083 | 0.893 ± 0.0056 | 0.877 ± 0.021 | 0.8868 ± 0.0073 | 0.661 ± 0.01 | 0.334 ± 0.015 | 0.088 ± 0.0061 | 0.0535 ± 0.0022 | 0.87 ± 0.04 | 0.861 ± 0.032 | 0.904 ± 0.016 | 0.83 ± 0.0039 | 0.226 ± 0.024 | 0.119 ± 0.015 | 0.0875 ± 0.0079 | 0.076 ± 0.0061
3 | CASKI CERVIX | 0.93 ± 0.055 | 0.921 ± 0.039 | 0.868 ± 0.037 | 0.911 ± 0.038 | 0.703 ± 0.0027 | 0.583 ± 0.028 | 0.3273 ± 0.0031 | 0.289 ± 0.024 | 0.745 ± 0.065 | 0.787 ± 0.04 | 0.77 ± 0.057 | 0.599 ± 0.072 | 0.1 ± 0.007 | 0.054 ± 0.0053 | 0.0283 ± 0.0025 | 0.0287 ± 0.0015
4 | CHLA90 AUTONOMIC GANGLIA | 0.992 ± 0.017 | 0.9167 ± 0.0091 | 0.926 ± 0.014 | 0.396 ± 0.01 | 0.949 ± 0.069 | 0.877 ± 0.048 | 0.169 ± 0.028 | 0.0267 ± 0.00058 | 0.927 ± 0.033 | 0.941 ± 0.023 | 0.912 ± 0.055 | 0.889 ± 0.037 | 0.476 ± 0.012 | 0.32 ± 0.018 | 0.175 ± 0.0084 | 0.143 ± 0.0023
5 | CME SYNOVIAL | 1.12 ± 0.14 | 0.826 ± 0.031 | 1.06 ± 0.15 | 0.177 ± 0.069 | 1.14 ± 0.07 | 0.947 ± 0.094 | 0.351 ± 0.018 | 0.141 ± 0.0067 | 0.9 ± 0.14 | 0.767 ± 0.024 | 1.01 ± 0.12 | 0.896 ± 0.13 | 0.259 ± 0.033 | 0.222 ± 0.015 | 0.239 ± 0.029 | 0.306 ± 0.032
6 | COLO320DM LARGE INTESTINE | 1.05 ± 0.037 | 1.04 ± 0.036 | 1.11 ± 0.026 | 0.522 ± 0.056 | 1.14 ± 0.12 | 0.966 ± 0.081 | 0.388 ± 0.0066 | 0.1 ± 0.006 | 1.04 ± 0.084 | 0.959 ± 0.094 | 1.05 ± 0.038 | 1.17 ± 0.075 | 1.26 ± 0.41 | 0.955 ± 0.16 | 0.505 ± 0.032 | 0.286 ± 0.048
7 | DU4475 BREAST | 0.949 ± 0.23 | 0.893 ± 0.28 | 0.857 ± 0.28 | 0.9 ± 0.33 | 0.793 ± 0.27 | 0.665 ± 0.32 | 0.293 ± 0.18 | 0.17 ± 0.078 | 0.798 ± 0.24 | 0.794 ± 0.15 | 0.764 ± 0.11 | 0.392 ± 0.11 | 0.0277 ± 0.0047 | 0.0283 ± 0.0051 | 0.027 ± 0.0066 | 0.0267 ± 0.0029
8 | H23 LUNG | 0.969 ± 0.043 | 0.957 ± 0.055 | 0.9683 ± 0.0096 | 0.959 ± 0.04 | 1.21 ± 0.03 | 1.19 ± 0.028 | 0.622 ± 0.012 | 0.399 ± 0.007 | 0.949 ± 0.026 | 0.939 ± 0.01 | 0.9313 ± 0.0035 | 0.727 ± 0.03 | 0.234 ± 0.0085 | 0.11 ± 0.014 | 0.0333 ± 0.0011 | 0.0323 ± 0.0025
9 | HCC78 LUNG | 0.833 ± 0.18 | 0.693 ± 0.063 | 0.855 ± 0.17 | 0.948 ± 0.071 | 0.72 ± 0.095 | 0.697 ± 0.24 | 0.228 ± 0.014 | 0.143 ± 0.022 | 0.814 ± 0.2 | 0.832 ± 0.067 | 0.961 ± 0.12 | 0.511 ± 0.097 | 0.0943 ± 0.0025 | 0.086 ± 0.011 | 0.053 ± 0.013 | 0.0667 ± 0.0021
10 | HCC202 BREAST | 1.39 ± 0.31 | 0.95 ± 0.16 | 0.918 ± 0.26 | 1.13 ± 0.17 | 1.03 ± 0.18 | 0.737 ± 0.16 | 0.189 ± 0.037 | 0.109 ± 0.0082 | 0.965 ± 0.13 | 0.988 ± 0.31 | 0.715 ± 0.081 | 0.537 ± 0.17 | 0.264 ± 0.053 | 0.177 ± 0.021 | 0.171 ± 0.038 | 0.161 ± 0.027

Reference: the supplement of paper PMC6045584
